Test results: ChEMBL document CHEMBL4715876 (J Med Chem, 2020)
Converted amounts (≈) assume the structure as drawn.

Columns and labels:
[1] = AUClast in BALB/C mouse at 10 mg/kg,po measured upto 24 hrs by LC-MS analysis; type: ADME, organism-based; set-up: route oral, dose 10 mg/kg, time <= 24; conditions: in vivo
[2] = AUClast in Beagle dog at 5 mg/kg, po measured upto 24 hrs by LC-MS/MS analysis; type: ADME, organism-based, Canis lupus familiaris; set-up: route oral, dose 5 mg/kg, time <=24; conditions: in vivo
[3] = Tmax in Sprague-Dawley rat at 2 mg/kg, iv measured upto 24 hrs by LC-MS/MS analysis; type: ADME, organism-based; conditions: in vivo
[4] = Tmax in Beagle dog at 5 mg/kg, po measured upto 24 hrs by LC-MS/MS analysis; type: ADME, organism-based, Canis lupus familiaris; conditions: in vivo
[5] = Cmax in Sprague-Dawley rat at 10 mg/kg, po measured upto 24 hrs by LC-MS/MS analysis; type: ADME, organism-based; set-up: route oral, dose 10 mg/kg, time <=24; conditions: in vivo
[6] = Tmax in BALB/C mouse at 10 mg/kg, po measured upto 24 hrs by LC-MS analysis; type: ADME, organism-based; conditions: in vivo
[7] = Cmax in BALB/C mouse at 10 mg/kg,po measured upto 24 hrs by LC-MS analysis; type: ADME, organism-based; set-up: route oral, dose 10 mg/kg, time <= 24; conditions: in vivo
[8] = Oral bioavailability in Sprague-Dawley rat at 10 mg/kg measured upto 24 hrs by LC-MS/MS analysis; type: ADME, organism-based; conditions: in vivo
[9] = Volume of distribution at steady state in Beagle dog at 1 mg/kg, iv measured upto 24 hrs by LC-MS/MS analysis; type: ADME, organism-based, Canis lupus familiaris; conditions: in vivo, 1 mg/kg, 24 h
[10] = Cmax in Beagle dog at 5 mg/kg, po measured upto 24 hrs by LC-MS/MS analysis; type: ADME, organism-based, Canis lupus familiaris; set-up: route oral, dose 5 mg/kg, time <=24; conditions: in vivo
[11] = Cmax in BALB/C mouse at 10 mg/kg, iv measured upto 24 hrs by LC-MS analysis; type: ADME, organism-based; set-up: route intravenous, dose 10 mg/kg, time <= 24; conditions: in vivo
[12] = AUClast in Beagle dog at 1 mg/kg, iv measured upto 24 hrs by LC-MS/MS analysis; type: ADME, organism-based, Canis lupus familiaris; set-up: route intravenous, dose 1 mg/kg, time <=24; conditions: in vivo
[13] = Cmax in Sprague-Dawley rat at 2 mg/kg, iv measured upto 24 hrs by LC-MS/MS analysis; type: ADME, organism-based; set-up: route intravenous, dose 2 mg/kg, time <=24; conditions: in vivo
[14] = AUClast in Sprague-Dawley rat at 2 mg/kg, iv measured upto 24 hrs by LC-MS/MS analysis; type: ADME, organism-based; set-up: route intravenous, dose 2 mg/kg, time <=24; conditions: in vivo
[15] = Volume of distribution at steady state in Sprague-Dawley rat at 2 mg/kg, iv measured upto 24 hrs by LC-MS/MS analysis; type: ADME, organism-based; conditions: in vivo, read-out: Vdss
[16] = Oral bioavailability in BALB/C mouse at 10 mg/kg measured upto 24 hrs by LC-MS analysis; type: ADME, organism-based; conditions: in vivo
[17] = Tmax in BALB/C mouse at 10 mg/kg, iv measured upto 24 hrs by LC-MS analysis; type: ADME, organism-based; conditions: in vivo
[18] = Oral bioavailability in Beagle dog at 5 mg/kg measured upto 24 hrs by LC-MS/MS analysis; type: ADME, organism-based, Canis lupus familiaris; conditions: in vivo
[19] = AUClast in BALB/C mouse at 10 mg/kg, iv measured upto 24 hrs by LC-MS analysis; type: ADME, organism-based; set-up: route intravenous, dose 10 mg/kg, time <= 24; conditions: in vivo
[20] = Tmax in Sprague-Dawley rat at 10 mg/kg, po measured upto 24 hrs by LC-MS/MS analysis; type: ADME, organism-based; conditions: in vivo
[21] = Cmax in Beagle dog at 1 mg/kg, iv measured upto 24 hrs by LC-MS/MS analysis; type: ADME, organism-based, Canis lupus familiaris; set-up: route intravenous, dose 1 mg/kg, time <=24; conditions: in vivo
[22] = Lipophilicity, log D of compound at pH 7.4; type: physicochemical; conditions: buffer
[23] = Solubility of the compound; type: physicochemical
[24] = Cmax in BALB/C mouse at 1 mg/kg, iv measured upto 24 hrs by LC-MS analysis; type: ADME, organism-based; set-up: route intravenous, dose 1 mg/kg, time <= 24; conditions: in vivo
[25] = Tmax in BALB/C mouse at 1 mg/kg, iv measured upto 24 hrs by LC-MS analysis; type: ADME, organism-based; conditions: in vivo
[26] = Volume of distribution at steady state in BALB/C mouse at 1 mg/kg, iv measured upto 24 hrs by LC-MS analysis; type: ADME, organism-based; conditions: in vivo, read-out: Vdss
[27] = AUClast in BALB/C mouse at 1 mg/kg, iv measured upto 24 hrs by LC-MS analysis; type: ADME, organism-based; set-up: route intravenous, dose 1 mg/kg, time <= 24; conditions: in vivo

SMILES: C[C@H](Nc1ncnc2[nH]cnc12)c1nc2cccc(Cl)c2c(=O)n1-c1ccccc1
- AUC(0-t) at 24 h [1]: 0.328 µM·h
- AUClast [2]: 26.25 µM·h
- Tmax [3]: 4.98 min
- Tmax [4]: 79.8 min
- Cmax [5]: 1880 nM
- Tmax [6]: 4.98 min
- Cmax [7]: 930 nM
- bioavailability [8]: 57%
- Vdss [9]: 57 L/kg
- Cmax [10]: 5680 nM
- Cmax [11]: 13300 nM
- AUClast [12]: 1.88 µM·h
- Cmax [13]: 3640 nM
- AUC(0-t) at 24 h [14]: 2.77 µM·h
- Vd [15]: 1.66 L/kg
- bioavailability [16]: 7%
- Tmax [17]: 4.98 min
- F [18]: 40%
- AUC(0-t) at 24 h [19]: 4.55 µM·h
- Tmax [20]: 72 min
- Cmax [21]: 1200 nM

SMILES: Cc1nc(N)nc(N[C@@H](C)c2c(-c3ccccc3)c(=O)n3cc(F)ccc3c2-c2ccc(F)cc2)c1C#N
- logD [22]: 3.26
- solubility [23]: 44.9 µM (≈ 22.9 µg/mL)

SMILES: C[C@H](Nc1nc(N)nc(N)c1C#N)c1c(-c2ccccc2)c(=O)n2cc(F)ccc2c1-c1ccccc1
- logD [22]: 2.49
- solubility [23]: 50.6 µM (≈ 24.9 µg/mL)

SMILES: C[C@H](Nc1nc(N)nc(N)c1C#N)c1c(-c2ccccc2)c(=O)n2cc(F)ccc2c1C1CC1
- AUC(0-t) at 24 h [1]: 2.4 µM·h
- Cmax [24]: 1400 nM
- Tmax [25]: 4.8 min
- Tmax [6]: 60 min
- Cmax [7]: 1300 nM
- bioavailability [16]: 16%
- Vd [26]: 1.8 L/kg
- AUC(0-t) at 24 h [27]: 1.5 µM·h
